From patent publication US9096591B2, “Tetracyclic compounds” (Medivation Technologies, Inc., priority 2007, dated 2015) come the findings set out here.

For experiment [1], the target named is T1, human recombinant adrenergic α2A receptor (Homo sapiens, UniProt P08913).
T1 construct: expressed in transfected cells; host or cells: insect Sf9 cells
T1 sequence (P08913 1-465): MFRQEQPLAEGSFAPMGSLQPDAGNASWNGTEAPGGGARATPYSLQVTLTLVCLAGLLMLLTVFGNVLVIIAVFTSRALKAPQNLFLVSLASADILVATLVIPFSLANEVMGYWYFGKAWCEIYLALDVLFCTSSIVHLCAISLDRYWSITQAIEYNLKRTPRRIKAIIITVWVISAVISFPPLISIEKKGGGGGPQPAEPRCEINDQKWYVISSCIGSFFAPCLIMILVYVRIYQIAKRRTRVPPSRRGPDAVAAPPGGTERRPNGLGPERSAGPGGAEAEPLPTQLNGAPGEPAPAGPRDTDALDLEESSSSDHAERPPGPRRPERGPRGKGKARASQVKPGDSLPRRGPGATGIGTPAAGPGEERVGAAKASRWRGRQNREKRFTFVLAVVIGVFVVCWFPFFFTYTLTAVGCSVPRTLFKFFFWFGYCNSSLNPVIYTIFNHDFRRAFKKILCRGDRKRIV
The experiment can be described thus: Adrenergic α2A radioligand binding ([3H]MK-912). Particulars: percent inhibition of specific binding. On the set-up: Inhibition of ligand binding, Adren. alpha2A: concentration or dose not given beside the values. The procedure, abridged:
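Membranes from Sf9 cells expressing the receptor were incubated with 1 nM [3H]MK-912 for 60 minutes at 25° C in 50 mM Tris-HCl pH 7.4, 12.5 mM MgCl2, 2 mM EDTA. 10 μM WB-4101 defined non-specific binding. Values are percent inhibition of specific bound radioactivity after filtration.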

For experiment [2], the target named is T2, human recombinant serotonin (5-Hydroxytryptamine) 5-HT6 receptor (Homo sapiens, UniProt P50406).
T2 construct: expressed in transfected cells; host or cells: human HeLa cells
Put plainly: Serotonin 5-HT6 radioligand binding ([3H]LSD). The following applies: percent inhibition of specific binding. Also on record: Inhibition of ligand binding, Ser. 5-HT6: concentration or dose not given beside the values. The text has this:
Receptor proteins were filtered and washed, the filters were then counted to determine [3H]LSD specifically bound. […] Biochemical assay results are presented as the percent inhibition of specific binding in Table 6.

The target of experiment [3] is T3, human recombinant serotonin (5-Hydroxytryptamine) 5-HT2A receptor (Homo sapiens, UniProt P28223).
T3 construct: expressed in transfected cells; host or cells: CHO-K1 cells
The experiment can be described thus: Serotonin 5-HT2A radioligand binding ([3H]Ketanserin). The following applies: percent inhibition of specific binding. As for the experimental part:
Compounds of the invention were incubated with 0.5 nM [^3H]Ketanserin for 60 minutes at 25° C. Non-specific binding was estimated in the presence of 1 μM Mianserin. Receptor proteins were filtered and washed, the filters were then counted to determine [^3H]Ketanserin specifically bound. […] Biochemical assay results are presented as the percent inhibition of specific binding in Table 6.

The target in experiment [4] is T4, human recombinant adrenergic α1D receptor (Homo sapiens, UniProt P25100).
T4 construct: expressed in transfected cells; host or cells: HEK-293 cells
T4 sequence (P25100 1-572): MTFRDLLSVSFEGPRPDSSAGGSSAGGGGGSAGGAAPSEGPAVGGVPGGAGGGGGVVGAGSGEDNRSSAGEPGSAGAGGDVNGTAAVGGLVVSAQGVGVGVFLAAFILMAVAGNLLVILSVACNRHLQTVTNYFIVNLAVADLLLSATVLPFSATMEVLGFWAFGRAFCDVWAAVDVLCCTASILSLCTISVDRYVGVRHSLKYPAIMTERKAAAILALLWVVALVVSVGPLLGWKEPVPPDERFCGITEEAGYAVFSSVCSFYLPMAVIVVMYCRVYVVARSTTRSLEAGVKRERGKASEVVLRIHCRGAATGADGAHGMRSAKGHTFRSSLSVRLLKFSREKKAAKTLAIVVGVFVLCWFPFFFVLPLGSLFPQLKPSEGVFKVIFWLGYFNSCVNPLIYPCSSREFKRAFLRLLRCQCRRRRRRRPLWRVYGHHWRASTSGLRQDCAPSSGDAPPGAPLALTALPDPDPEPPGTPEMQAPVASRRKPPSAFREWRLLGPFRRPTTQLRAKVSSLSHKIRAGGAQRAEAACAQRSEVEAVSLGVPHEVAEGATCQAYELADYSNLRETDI
Put plainly: Adrenergic α1D radioligand binding ([3H]Prozosin). Also on record: Inhibition of ligand binding, Adren. alpha1D: concentration or dose not given beside the values. Particulars: percent inhibition of specific binding. As for the experimental part:
Compounds of invention were incubated with 0.6 nM [^3H]Prozosin for 60 minutes at 25° C. Non-specific binding was estimated in the presence of 10 μM phentolamine. Receptor proteins were filtered and washed, the filters were then counted to determine [^3H]Prozosin specifically bound. […] Biochemical assay results are presented as the percent inhibition of specific binding in Table 6.

The target in experiment [5] is T5, human recombinant histamine H1 receptor (Homo sapiens, UniProt P35367).
T5 construct: expressed in transfected cells; host or cells: CHO cells
The experiment can be described thus: Histamine H1 radioligand binding ([3H]Pyrilamine). Particulars: percent inhibition of specific binding; screened at 1 μM; read-out: Inhibition of ligand binding, Hist. H1. The procedure, abridged: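 Receptor expressed in CHO cells, assayed in 50 mM Tris-HCl pH 7.4 with 2 mM MgCl2, 100 mM NaCl, 250 mM sucrose. Compounds tested at 1 μM in 1% DMSO; non-specific binding set with 1 μM pyrilamine. Filter-bound radioactivity counted; values are percent inhibition of specific binding.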

Structures are written as SMILES.

T5 sequence (P35367 whole entry): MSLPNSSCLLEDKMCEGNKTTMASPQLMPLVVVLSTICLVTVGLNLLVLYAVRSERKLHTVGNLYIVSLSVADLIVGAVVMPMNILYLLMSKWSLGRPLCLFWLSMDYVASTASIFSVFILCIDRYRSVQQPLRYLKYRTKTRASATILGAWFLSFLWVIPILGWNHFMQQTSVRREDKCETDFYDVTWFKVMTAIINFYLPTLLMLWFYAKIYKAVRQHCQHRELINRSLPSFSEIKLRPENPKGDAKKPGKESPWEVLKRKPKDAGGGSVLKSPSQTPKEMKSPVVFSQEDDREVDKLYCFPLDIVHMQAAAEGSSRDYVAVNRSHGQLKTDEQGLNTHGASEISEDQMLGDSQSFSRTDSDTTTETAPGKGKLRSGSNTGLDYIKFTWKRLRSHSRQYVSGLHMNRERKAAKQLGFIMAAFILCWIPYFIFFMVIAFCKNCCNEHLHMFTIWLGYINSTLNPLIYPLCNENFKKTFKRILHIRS
T2 sequence (P50406 whole entry): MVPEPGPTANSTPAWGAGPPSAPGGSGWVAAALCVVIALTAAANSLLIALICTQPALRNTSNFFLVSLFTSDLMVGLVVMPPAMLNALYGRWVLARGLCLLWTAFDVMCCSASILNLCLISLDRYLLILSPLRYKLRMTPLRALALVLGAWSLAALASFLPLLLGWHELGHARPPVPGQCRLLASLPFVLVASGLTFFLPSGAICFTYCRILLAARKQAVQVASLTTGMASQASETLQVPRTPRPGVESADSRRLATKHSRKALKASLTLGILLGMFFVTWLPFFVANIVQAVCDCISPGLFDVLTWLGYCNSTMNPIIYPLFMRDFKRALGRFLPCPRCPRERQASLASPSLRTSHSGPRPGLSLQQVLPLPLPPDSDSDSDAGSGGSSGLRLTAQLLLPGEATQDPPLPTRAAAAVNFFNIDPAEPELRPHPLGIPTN
T3 sequence (P28223 whole entry): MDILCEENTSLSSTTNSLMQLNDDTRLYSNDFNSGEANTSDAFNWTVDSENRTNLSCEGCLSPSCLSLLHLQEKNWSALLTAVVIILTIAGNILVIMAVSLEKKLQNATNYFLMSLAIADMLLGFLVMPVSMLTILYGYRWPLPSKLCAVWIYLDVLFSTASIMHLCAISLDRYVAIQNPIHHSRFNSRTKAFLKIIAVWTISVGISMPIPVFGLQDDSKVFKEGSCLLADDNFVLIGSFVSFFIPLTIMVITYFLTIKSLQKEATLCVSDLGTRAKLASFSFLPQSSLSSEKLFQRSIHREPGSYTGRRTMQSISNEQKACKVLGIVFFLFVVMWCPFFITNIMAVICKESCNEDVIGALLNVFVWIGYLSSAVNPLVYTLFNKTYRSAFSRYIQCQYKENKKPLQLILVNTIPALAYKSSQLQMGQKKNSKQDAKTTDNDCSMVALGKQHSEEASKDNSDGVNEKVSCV

By inhibition is commonly meant the change of the read-out against control, counted positive when it falls. Regarding `CN1CCc2c(c3cc(C(F)(F)F)ccc3n2CCc2ccccc2)C1` [Compound 80, 8-(trifluoromethyl)-2,3,4,5-tetrahydro-2-methyl-5-phenethyl-1H-pyrido[4,3-b]indole], the “Inhibition of ligand binding, Adren. alpha2A” value (“Inhibition … Adren. alpha2A” below) in experiment [1] is 98%. In addition, the “Inhibition of ligand binding, Ser. 5-HT6” value in experiment [2] is on record as 101%. For the same molecule, the “Inhibition of ligand binding, Ser. 5-HT2A” value (“Inhibition … Ser. 5-HT2A” for short) in experiment [3] was 88%. Also, in experiment [4], the “Inhibition of ligand binding, Adren. alpha1D” value (shortened to “Inhibition … Adren. alpha1D”) is listed as 75%. The inhibition at 1 µM in experiment [5] turned out to be 89%.

In the case of `CN1CCc2c(c3c(Cl)cccc3n2CCc2ccccc2)C1` [Compound 81], the “Inhibition … Adren. alpha2A” value in experiment [1] is 96%. Further, in experiment [2], the “Inhibition of ligand binding, Ser. 5-HT6” value stood at 86%. Besides, in experiment [3], the “Inhibition … Ser. 5-HT2A” value amounted to 99%. In addition, in experiment [4], the “Inhibition … Adren. alpha1D” value is given as 47%. Further, the inhibition at 1 µM in experiment [5] is 94%.

For `CN1CCc2c(c3ccc(Cl)cc3n2CCc2ccccc2)C1` [Compound 82], the “Inhibition … Adren. alpha2A” value in experiment [1] came to 99%. Besides, the “Inhibition of ligand binding, Ser. 5-HT6” value in experiment [2] is on record as 103%. In addition, the “Inhibition … Ser. 5-HT2A” value in experiment [3] is given as 99%. The “Inhibition … Adren. alpha1D” value in experiment [4] came to 64%. Besides, in experiment [5], the inhibition at 1 µM was found to be 99%.

As for `CN1CCc2c(c3cccc(Cl)c3n2CCc2ccccc2)C1` [Compound 83], the “Inhibition … Adren. alpha2A” value in experiment [1] amounted to 100%. Besides, the “Inhibition of ligand binding, Ser. 5-HT6” value in experiment [2] is reported as 106%. Moreover, the “Inhibition … Ser. 5-HT2A” value in experiment [3] was 100%. Moreover, the “Inhibition … Adren. alpha1D” value in experiment [4] came out at 92%. In addition, the inhibition at 1 µM in experiment [5] amounted to 97%.

Regarding `CN1CCc2c(c3cc(Cl)ccc3n2CCc2ccc(F)cc2)C1` [Compound 162, 5-(4-fluorophenethyl)-8-chloro-2,3,4,5-tetrahydro-2-methyl-1H-pyrido[4,3-b]indole], in experiment [1], the “Inhibition … Adren. alpha2A” value came to 99%. Further, the “Inhibition of ligand binding, Ser. 5-HT6” value in experiment [2] was 99%. Also, the “Inhibition … Ser. 5-HT2A” value in experiment [3] was determined as 98%. Moreover, the “Inhibition … Adren. alpha1D” value in experiment [4] came to 90%. Besides, the inhibition at 1 µM in experiment [5] came out at 100%.

Regarding `CN1CCc2c(c3cc(Cl)ccc3n2CCC2CCCCC2)C1` [Compound 164, 8-chloro-5-(2-cyclohexylethyl)-2,3,4,5-tetrahydro-2-methyl-1H-pyrido[4,3-b]indole], the “Inhibition … Adren. alpha2A” value in experiment [1] amounted to 95%. Moreover, the “Inhibition of ligand binding, Ser. 5-HT6” value in experiment [2] stood at 99%. Moreover, the “Inhibition … Ser. 5-HT2A” value in experiment [3] stood at 91%. Moreover, in experiment [4], the “Inhibition … Adren. alpha1D” value is 32%. The inhibition at 1 µM in experiment [5] worked out at 101%.

On to `CN1CCc2c(c3cc(Cl)ccc3n2CCN2CCOCC2)C1` [Compound 186, 8-chloro-2,3,4,5-tetrahydro-2-methyl-5-(2-morpholinoethyl)-1H-pyrido[4,3-b]indole], for which the “Inhibition … Adren. alpha2A” value in experiment [1] was 51%. The “Inhibition of ligand binding, Ser. 5-HT6” value in experiment [2] was 83%. Moreover, the “Inhibition … Ser. 5-HT2A” value in experiment [3] turned out to be 84%. In addition, the “Inhibition … Adren. alpha1D” value in experiment [4] turned out to be 41%. In experiment [5], the inhibition at 1 µM was 97%.

On to `CN1CCc2c(c3c(Cl)cccc3n2CCC2CCCCC2)C1` [Compound 187, 9-chloro-5-(2-cyclohexylethyl)-2,3,4,5-tetrahydro-2-methyl-1H-pyrido[4,3-b]indole], for which the “Inhibition … Adren. alpha2A” value in experiment [1] came to 90%. In addition, the “Inhibition of ligand binding, Ser. 5-HT6” value in experiment [2] stood at 53%. In experiment [3], the “Inhibition … Ser. 5-HT2A” value amounted to 84%. For the same molecule, the “Inhibition … Adren. alpha1D” value in experiment [4] was determined as 15%. Besides, the inhibition at 1 µM in experiment [5] came out at 64%.

Turning to `CN1CCc2c(c3ccc(Cl)cc3n2CCC2CCCCC2)C1` [Compound 188, 7-chloro-5-(2-cyclohexylethyl)-2,3,4,5-tetrahydro-2-methyl-1H-pyrido[4,3-b]indole], the “Inhibition … Adren. alpha2A” value in experiment [1] is recorded as 80%. The “Inhibition of ligand binding, Ser. 5-HT6” value in experiment [2] was found to be 67%. Further, the “Inhibition … Ser. 5-HT2A” value in experiment [3] was 58%. In addition, the “Inhibition … Adren. alpha1D” value in experiment [4] is listed as 8%. Further, the inhibition at 1 µM in experiment [5] was determined as 97%.
